What was measured:
Assay type in all cases: toxicity, cell-based
U2OS = assay: Incucyte cell viability with U2OS; conditions: human, 10 µM, compound concentration 10 uM
HEK-293T = assay: Incucyte cell viability with HEK293T; conditions: human, 10 µM, compound concentration 10 uM
Fibroblast = assay: Incucyte cell viability with human fibroblast; conditions: 10 µM, compound concentration 10 uM
[1] = 6 h, replicate number 1, timepoint 6 hours
[2] = 12 h, replicate number 1, timepoint 12 hours
[3] = 12 h, replicate number 2, timepoint 12 hours
[4] = 18 h, replicate number 1, timepoint 18 hours
[5] = 18 h, replicate number 2, timepoint 18 hours
[6] = 24 h, replicate number 1, timepoint 24 hours
[7] = 0 h, replicate number 1, timepoint 0 hours
[8] = 0 h, replicate number 2, timepoint 0 hours
[9] = 6 h, replicate number 2, timepoint 6 hours
[10] = 24 h, replicate number 2, timepoint 24 hours
Further: filed as whole numbers so only -1 and 0 and 1 occur.

Compound	Growth Rate (U2OS; [1])	Growth Rate (U2OS; [2])	Growth Rate (U2OS; [4])	Growth Rate (U2OS; [5])	Growth Rate (U2OS; [6])	Growth Rate (HEK-293T; [7])	Growth Rate (HEK-293T; [8])	Growth Rate (HEK-293T; [1])	Growth Rate (HEK-293T; [2])	Growth Rate (HEK-293T; [4])	Growth Rate (HEK-293T; [6])	Growth Rate (Fibroblast; [7])	Growth Rate (Fibroblast; [1])	Growth Rate (Fibroblast; [9])	Growth Rate (Fibroblast; [2])	Growth Rate (Fibroblast; [4])	Growth Rate (Fibroblast; [6])	Growth Rate (U2OS; [7])	Growth Rate (U2OS; [8])	Growth Rate (U2OS; [9])	also measured
CCCCCCCCCCCCCCCCOC[C@H](COP(=O)([O-])OCC[N+](C)(C)C)OC(C)=O	0	1	0	1	1	1	0	1	1	1	1	0	1	0	1	1	1				Growth Rate (U2OS; [3]): 0; Growth Rate (Fibroblast; [5]): 0; Growth Rate (Fibroblast; [10]): 0
O=c1ccn([C@@H]2O[C@H](COP(=O)([O-])OP(=O)([O-])O)[C@@H](O)[C@H]2O)c(=O)[nH]1.[Na+].[Na+]	0	1	0	1	1	1	0	0	1	1	1	0		1		1	1	1	0	1	Growth Rate (HEK-293T; [9]): 1; Growth Rate (Fibroblast; [3]): 1
CC[C@@H]1CN2C(=O)N(C)c3nc(-c4ccccc4)[nH]c3C2=N1.Cl			1		1	1	0	1	1	1	1	0			1	1	1		0	1	Growth Rate (U2OS; [3]): 0; Growth Rate (Fibroblast; [3]): 0
c1ccc(Nc2nc3c(s2)CCCc2[nH]ncc2-3)nc1	1	1	0	1	0	1	0	0	0	0	0		0		1	1	0		0	0	Growth Rate (HEK-293T; [5]): 1; Growth Rate (HEK-293T; [10]): 1
CCCNS(=O)(=O)Nc1ncnc(OCCOc2ncc(Br)cn2)c1-c1ccc(Br)cc1	0	0	0		0	0		0	0	0	0	0	0		0	1	0				
Cc1nnn(-c2ccc(-c3ccc(C4(C(=O)O)CC4)cc3)cc2)c1NC(=O)O[C@H](C)c1ccccc1		1	1		1	0		0	0	0	0	0						0			Growth Rate (HEK-293T; [3]): 1; Growth Rate (HEK-293T; [5]): 1
FC(F)(F)c1cccc(-c2noc(-c3cc(-c4ccccc4)c(C(F)(F)F)s3)n2)c1	1	1	1	0	1	1	0	0	0	0	0	0		0	1	1	1	1	0		Growth Rate (U2OS; [3]): 0; Growth Rate (Fibroblast; [10]): 0
Cc1cc([C@@H](C)Nc2cccc(-c3cc(C)c(C(=O)N[C@@H](C)C(=O)O)c(C)c3)c2)ccc1Cl		1	0	1	1	1	0	0	0	0	0	0	1	0	1	1	0	0	1	0	Growth Rate (Fibroblast; [3]): 0
NS(=O)(=O)c1c(Cl)ccc(NC(=O)Nc2cccc(Cl)c2Cl)c1O		0	1		1	1	0	1	1	0	0	0		0	1	1	1	0			Growth Rate (U2OS; [10]): 0; Growth Rate (HEK-293T; [5]): 1; Growth Rate (HEK-293T; [10]): 1; Growth Rate (Fibroblast; [8]): 1; Growth Rate (Fibroblast; [3]): 0; Growth Rate (Fibroblast; [5]): 0; Growth Rate (Fibroblast; [10]): 0
COC1CCN(c2cccc(-c3cc(NC(C)=O)nc(-n4nc(C)cc4C)n3)n2)CC1		0	0		0	0		0	0	0	0	0	1	0	1	1	0	0		0	Growth Rate (Fibroblast; [3]): 0; Growth Rate (Fibroblast; [5]): 0
